From article PMC1500811, “Neofunctionalization in Vertebrates: The Example of Retinoic Acid Receptors” (PLoS Genetics, 2006) come the findings set out here.

The subject of one experiment is T1, zfRARγ.
T1 construct: gene rarga; LBD fused to Gal4 residues 1-147; in vitro translated for proteolysis
The experiment is described as follows: Gal4-RAR(LBD) luciferase transactivation in Cos-1 cells. Format: cell-based, Danio rerio. The settings on record: agonist; one collective range given for all chordate RARs.

In a further experiment the target is T2, xRARα (Xenopus laevis, UniProt P51126).
T2 construct: gene rara; LBD fused to Gal4 residues 1-147; in vitro translated for proteolysis
T2 sequence (P51126 155-458 limits assumed): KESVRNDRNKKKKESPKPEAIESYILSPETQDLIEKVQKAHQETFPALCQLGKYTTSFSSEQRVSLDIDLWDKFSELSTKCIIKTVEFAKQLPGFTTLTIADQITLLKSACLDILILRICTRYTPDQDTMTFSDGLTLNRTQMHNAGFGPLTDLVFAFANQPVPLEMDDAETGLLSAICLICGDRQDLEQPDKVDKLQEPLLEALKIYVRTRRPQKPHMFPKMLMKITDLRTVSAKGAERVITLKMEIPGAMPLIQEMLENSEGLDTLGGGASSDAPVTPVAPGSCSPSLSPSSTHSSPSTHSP
The description is as above. The class given is cell-based. As to conditions: agonist; one collective range given for all chordate RARs.

The subject of the next experiment is T3, xRARβ.
T3 construct: gene rarb; LBD fused to Gal4 residues 1-147; in vitro translated for proteolysis
Described as above. The class given is cell-based, Xenopus laevis. As to conditions: agonist; one collective range given for all chordate RARs.

The target in experiment [1] is T4, AmphiRAR (Branchiostoma floridae, UniProt Q8MX80). The description is as above. Format: cell-based. More on the design: LBD from Ser154 fused to Gal4 residues 1-147. As to conditions: agonist; one collective range given for all chordate RARs.
T4 sequence (Q8MX80 entry or part of it): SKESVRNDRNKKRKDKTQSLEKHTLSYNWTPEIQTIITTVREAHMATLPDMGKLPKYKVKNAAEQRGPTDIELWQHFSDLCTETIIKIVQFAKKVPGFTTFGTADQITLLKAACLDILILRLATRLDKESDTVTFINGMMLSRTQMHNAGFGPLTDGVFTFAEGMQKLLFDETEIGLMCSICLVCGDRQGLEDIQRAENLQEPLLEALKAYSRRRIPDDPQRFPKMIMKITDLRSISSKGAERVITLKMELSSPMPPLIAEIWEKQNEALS
A further experiment has as its system T5, AncRAR.
T5 construct: maximum-likelihood reconstructed LBD fused to Gal4 residues 1-147
The description is as above. The class given is cell-based, synthetic construct. As to conditions: agonist; one collective range given for all chordate RARs. From the text:
Gal4-RAR(LBD) luciferase transactivation in Cos-1 cells on AncRAR | all the chordate RARs, including the reconstructed AncRAR, are able to transactivate in a dose-dependent manner

For a further experiment, the system named is T6, zfRARα.
T6 construct: gene raraa; LBD fused to Gal4 residues 1-147; in vitro translated for proteolysis
The description is as above. Format: cell-based, Danio rerio. The settings on record: agonist; one collective range given for all chordate RARs.

Another experiment addresses T7, xRARγ (Xenopus laevis, UniProt P28699).
T7 construct: gene rarg; LBD fused to Gal4 residues 1-147; in vitro translated for proteolysis
T7 sequence (P28699 166-476 limits assumed): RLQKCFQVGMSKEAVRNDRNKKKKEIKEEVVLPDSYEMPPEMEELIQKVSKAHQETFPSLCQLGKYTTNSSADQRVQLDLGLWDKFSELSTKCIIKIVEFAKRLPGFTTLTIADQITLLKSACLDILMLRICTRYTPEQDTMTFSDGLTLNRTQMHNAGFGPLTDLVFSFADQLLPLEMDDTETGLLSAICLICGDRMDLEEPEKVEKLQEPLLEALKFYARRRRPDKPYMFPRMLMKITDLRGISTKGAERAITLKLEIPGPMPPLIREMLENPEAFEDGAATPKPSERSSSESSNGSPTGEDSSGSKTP
The experiment is described as above. Format: cell-based. The settings on record: agonist; one collective range given for all chordate RARs.

The target of experiment [2] is T8, PmRAR (Polyandrocarpa misakiensis, UniProt K7ZRU3).
T8 sequence (K7ZRU3 208-503 limits assumed): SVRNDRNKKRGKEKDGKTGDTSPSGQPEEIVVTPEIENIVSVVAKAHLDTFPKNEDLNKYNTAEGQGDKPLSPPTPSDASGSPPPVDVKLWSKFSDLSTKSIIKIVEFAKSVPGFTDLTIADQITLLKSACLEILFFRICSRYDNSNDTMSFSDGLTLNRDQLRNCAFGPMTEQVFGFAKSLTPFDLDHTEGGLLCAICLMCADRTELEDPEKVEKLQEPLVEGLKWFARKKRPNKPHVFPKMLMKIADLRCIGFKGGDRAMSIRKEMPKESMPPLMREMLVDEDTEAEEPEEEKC
The experiment is described as above. The class given is cell-based. More on the design: gene Pm-RAR; LBD fused to Gal4 residues 1-147. As to conditions: agonist; one collective range given for all chordate RARs.

The target of experiment [3] is T8, PmRAR. The experiment in a line: limited trypsin proteolysis of in vitro-translated receptor. More on the design: gene Pm-RAR; LBD fused to Gal4 residues 1-147; in vitro translated for proteolysis. The settings on record: ligand 10^-4 to 10^-5 M, room temperature. The class given is binding.
Experiment [4] concerns the target T4, AmphiRAR. The experiment is described as above. Format: binding. Further details: LBD from Ser154 fused to Gal4 residues 1-147; in vitro translated for proteolysis. As to conditions: ligand 10^-4 to 10^-5 M, room temperature.

Take `CC1=C(/C=C/C(C)=C/C=C/C(C)=C/C(=O)O)C(C)(C)CCC1` [ATRA]: the EC50 in the experiment on zfRARγ, at xRARα, in the experiment on xRARβ, on AmphiRAR [1], with AncRAR and with zfRARα was ~ 10^−9 to 10^−8 M in each case. For the same molecule, the EC50 on xRARγ and at PmRAR [2] was ~ 10^−9 to 10^−8 M throughout.
For the molecule `CC1(C)CC=C(c2ccccc2)c2cc(/C=C/c3ccc(C(=O)O)cc3Cl)ccc21` [BMS641], on PmRAR [3], the “limited trypsin proteolysis of in vitro-translated receptor” value was “both PmRAR and AncRAR are able to bind weakly the β-specific retinoid (BMS641)”.
On to `CC1(C)C(=O)C(C)(C)c2cc(C(=O)Nc3ccc(C(=O)O)cc3)ccc21` [BMS753], for which, at AmphiRAR [4], the “limited trypsin proteolysis of in vitro-translated receptor” value is given as “It also binds the α-specific compound (BMS753) (Figure 4F)”.
